Tests used:
HIV-1 protease = HIV-1 protease (Human immunodeficiency virus type 1 group M subtype B, UniProt P04585); assay: Enzymatic inhibitory activity (Ki) against HIV-1 protease; assay type: biochemical
HIV-1LAI = assay: Antiviral activity against HIV-1LAI; assay type: cell-based; conditions: Human immunodeficiency virus 1
HIV-1MDR/TM (X4) = assay: Antiviral activity against multi-drug resistant clinical isolates in PHA-PBMs (p24 Gag production); assay type: cell-based
From the text: (§1) Relative Antiviral activity of 33, and 34 against multi-drug resistant clinical isolates in PHA-PBMs

HIV-1MDR/MM (R5) = assay: as above; assay type: cell-based
From the text: as §1

HIV-1MDR/G (X4) = assay: as above; assay type: cell-based
From the text: as §1

HIV-1MDR/JSL (R5) = assay: as above; assay type: cell-based
From the text: as §1

HIV-1MDR/B (X4) = assay: as above; assay type: cell-based
From the text: as §1

HIV-1MDR/C (X4) = assay: as above; assay type: cell-based
From the text: as §1

[1] = system: HIV-1ERS104pre (wild-type: X4); assay: Antiviral activity against clinical isolates in PHA-PBMs (p24 Gag production); assay type: cell-based
From the text: as §1

[2] = system: highly PI-resistant clinical HIV-1 variants; conditions: in vitro; result in words
Protocol: In another embodiment, novel oxatricyclic [3(R), 3aS, 4aS, 7aR, 8aS] and [3(R), 3aS, 4aR, 7aS, 8aS]-ligands were designed, synthesized, and incorporated into the (R)-hydroxyethyl sulfonamide isostere. […] The antiviral activity of 33 against a panel of highly PI-resistant clinical HIV-1 variants in vitro was measured.

COc1ccc(S(=O)(=O)N(CC(C)C)C[C@@H](O)[C@H](Cc2ccccc2)NC(=O)OC2CCCC3OC4OCCCC4C23)cc1 (stereo partly shown)
Ki (HIV-1 protease): < 1 nM

COc1ccc(S(=O)(=O)N(CC(C)C)C[C@@H](O)[C@H](Cc2ccccc2)NC(=O)O[C@H]2CCCC3O[C@H]4OCC[C@H]4C32)cc1 (stereo partly shown)
Ki (HIV-1 protease): < 0.1 nM | IC50 (HIV-1LAI): < 10 nM

COc1ccc(S(=O)(=O)N(CC(C)C)C[C@@H](O)[C@H](Cc2ccccc2)NC(=O)O[C@@H]2C[C@@H]3OC4OCCCC4[C@@H]3C2)cc1 (stereo partly shown)
Ki (HIV-1 protease): < 0.1 nM

CC(C)CN(C[C@@H](O)[C@H](Cc1ccccc1)NC(=O)O[C@H]1CO[C@H]2O[C@@H]3OCC[C@@H]3[C@H]21)S(=O)(=O)c1ccc(N)cc1
Ki (HIV-1 protease): < 0.1 nM

COc1ccc(S(=O)(=O)N(CC(C)C)C[C@@H](O)[C@H](Cc2ccccc2)NC(=O)OC2CS(=O)(=O)CC3OC4OCCC4C23)cc1 (stereo partly shown)
Ki (HIV-1 protease): < 1 nM

COc1ccc(S(=O)(=O)N(CC(C)C)C[C@@H](O)[C@H](Cc2ccccc2)NC(=O)OC2CS(=O)(=O)CC3OC4OCCCC4C23)cc1 (stereo partly shown)
Ki (HIV-1 protease): > 10 nM

CC(C)CN(C[C@@H](O)[C@H](Cc1ccccc1)NC(=O)O[C@@H]1C[C@@H]2[C@H]3COC[C@H]3O[C@@H]2C1)S(=O)(=O)c1ccc(N)cc1
Ki (HIV-1 protease): < 0.1 nM

CC(C)CN(C[C@@H](O)[C@H](Cc1ccccc1)NC(=O)O[C@H]1CO[C@H]2O[C@@H]3COC[C@@H]3[C@H]21)S(=O)(=O)c1ccc(N)cc1
Ki (HIV-1 protease): < 0.1 nM

COc1ccc(S(=O)(=O)N(CC(C)C)C[C@@H](O)[C@H](Cc2ccccc2)NC(=O)O[C@H]2CO[C@H]3O[C@@H]4CCO[C@@H]4[C@H]32)cc1
Ki (HIV-1 protease): < 0.1 nM

COc1ccc(S(=O)(=O)N(CC(C)C)C[C@@H](O)[C@H](Cc2ccccc2)NC(=O)O[C@H]2CO[C@H]3O[C@@H]4COC[C@@H]4[C@H]32)cc1
Ki (HIV-1 protease): < 0.1 nM

CC(C)CN(C[C@@H](O)[C@H](Cc1ccccc1)NC(=O)O[C@@H]1C[C@@H]2[C@H]3OCC[C@H]3O[C@@H]2C1)S(=O)(=O)c1ccc(N)cc1
Ki (HIV-1 protease): > 10 nM

CC(C)CN(C[C@@H](O)[C@H](Cc1ccccc1)NC(=O)O[C@H]1CO[C@H]2O[C@@H]3CCO[C@@H]3[C@H]21)S(=O)(=O)c1ccc(N)cc1
Ki (HIV-1 protease): < 0.1 nM

CC(C)CN(C[C@@H](O)[C@H](Cc1ccccc1)NC(=O)O[C@H]1CCOC1)S(=O)(=O)c1ccc(N)cc1 [APV, Amprenavir, reference compound]
fold changes of IC50 values compared to wild-type HIV-1ERS104pre (HIV-1MDR/TM (X4)): 15 fold | fold changes of IC50 values compared to wild-type HIV-1ERS104pre (HIV-1MDR/MM (R5)): 9 fold | fold changes of IC50 values compared to wild-type HIV-1ERS104pre (HIV-1MDR/G (X4)): 15 fold | fold changes of IC50 values compared to wild-type HIV-1ERS104pre (HIV-1MDR/JSL (R5)): 13 fold | fold changes of IC50 values compared to wild-type HIV-1ERS104pre (HIV-1MDR/B (X4)): 16 fold | fold changes of IC50 values compared to wild-type HIV-1ERS104pre (HIV-1MDR/C (X4)): 11 fold | fold changes of IC50 values compared to wild-type HIV-1ERS104pre [1]: 1 fold

CC(C)CN(C[C@@H](O)[C@H](Cc1ccccc1)NC(=O)O[C@H]1CO[C@H]2OCC[C@H]21)S(=O)(=O)c1ccc(N)cc1 [DRV, Darunavir, reference compound]
fold changes of IC50 values compared to wild-type HIV-1ERS104pre (HIV-1MDR/TM (X4)): 6 fold | fold changes of IC50 values compared to wild-type HIV-1ERS104pre (HIV-1MDR/MM (R5)): 3 fold | fold changes of IC50 values compared to wild-type HIV-1ERS104pre (HIV-1MDR/G (X4)): 6 fold | fold changes of IC50 values compared to wild-type HIV-1ERS104pre (HIV-1MDR/JSL (R5)): 5 fold | fold changes of IC50 values compared to wild-type HIV-1ERS104pre (HIV-1MDR/B (X4)): 6 fold | fold changes of IC50 values compared to wild-type HIV-1ERS104pre (HIV-1MDR/C (X4)): 2 fold | fold changes of IC50 values compared to wild-type HIV-1ERS104pre [1]: 1 fold

COc1ccc(S(=O)(=O)N(CC(C)C)C[C@@H](O)[C@H](Cc2ccccc2)NC(=O)O[C@H]2CO[C@H]3O[C@H]4OCC[C@H]4[C@H]32)cc1 [Inhibitor 31]
IC50 (HIV-1LAI): < 1000 nM

COc1ccc(S(=O)(=O)N(CC(C)C)C[C@@H](O)[C@H](Cc2ccccc2)NC(=O)O[C@@H]2CO[C@@H]3O[C@@H]4OCC[C@@H]4[C@@H]32)cc1 [Inhibitor 32]
IC50 (HIV-1LAI): < 10 nM

COc1ccc(S(=O)(=O)N(CC(C)C)C[C@@H](O)[C@H](Cc2ccccc2)NC(=O)O[C@H]2CO[C@H]3O[C@@H]4OCC[C@@H]4[C@H]32)cc1 [Inhibitor 33]
antiviral activity against a panel of highly PI-resistant clinical HIV-1 variants [2]: effectively suppressed all tested clinical HIV-1 variants | Ki (HIV-1 protease): < 0.1 nM | IC50 (HIV-1LAI): < 10 nM | fold changes of IC50 values compared to wild-type HIV-1ERS104pre (HIV-1MDR/TM (X4)): 4 fold | fold changes of IC50 values compared to wild-type HIV-1ERS104pre (HIV-1MDR/MM (R5)): 5 fold | fold changes of IC50 values compared to wild-type HIV-1ERS104pre (HIV-1MDR/G (X4)): 5 fold | fold changes of IC50 values compared to wild-type HIV-1ERS104pre (HIV-1MDR/JSL (R5)): 5 fold | fold changes of IC50 values compared to wild-type HIV-1ERS104pre (HIV-1MDR/B (X4)): 7 fold | fold changes of IC50 values compared to wild-type HIV-1ERS104pre (HIV-1MDR/C (X4)): 2 fold | fold changes of IC50 values compared to wild-type HIV-1ERS104pre [1]: 1 fold

COc1ccc(S(=O)(=O)N(CC(C)C)C[C@@H](O)[C@H](Cc2ccccc2)NC(=O)O[C@@H]2CO[C@@H]3O[C@H]4OCC[C@H]4[C@@H]32)cc1 [Inhibitor 34]
Ki (HIV-1 protease): < 10 nM | IC50 (HIV-1LAI): < 1000 nM | fold changes of IC50 values compared to wild-type HIV-1ERS104pre (HIV-1MDR/TM (X4)): 2 fold | fold changes of IC50 values compared to wild-type HIV-1ERS104pre (HIV-1MDR/MM (R5)): 2 fold | fold changes of IC50 values compared to wild-type HIV-1ERS104pre (HIV-1MDR/G (X4)): 2 fold | fold changes of IC50 values compared to wild-type HIV-1ERS104pre (HIV-1MDR/JSL (R5)): >2 fold | fold changes of IC50 values compared to wild-type HIV-1ERS104pre (HIV-1MDR/B (X4)): 2 fold | fold changes of IC50 values compared to wild-type HIV-1ERS104pre (HIV-1MDR/C (X4)): 1 fold | fold changes of IC50 values compared to wild-type HIV-1ERS104pre [1]: 1 fold

COc1ccc(S(=O)(=O)N(CC(C)C)C[C@@H](O)[C@H](Cc2ccccc2)NC(=O)O[C@H]2CO[C@H]3C[C@H]4OCC[C@H]4[C@H]32)cc1 [Inhibitor 35]
Ki (HIV-1 protease): < 10 nM | IC50 (HIV-1LAI): < 1000 nM

COc1ccc(S(=O)(=O)N(CC(C)C)C[C@@H](O)[C@H](Cc2ccccc2)NC(=O)O[C@H]2CO[C@H]3C[C@@H]4OCC[C@@H]4[C@H]32)cc1 [Inhibitor 36]
Ki (HIV-1 protease): < 10 nM | IC50 (HIV-1LAI): > 1000 nM

Reference: patent publication US8563597B2, “Fused tricyclic ether carbamates and their use” (priority 2010, dated 2013)
